In ChEMBL document CHEMBL1149767, “Structural and biological studies of mononuclear palladium(II) complexes containing N-substituted thiosemicarbazones” (2008):

Key:
Assay type in all cases: functional
Escherichia coli [1] = test: Antibacterial activity against Escherichia coli assessed as diameter of inhibition zone at 0.5% after 24 hrs
Staphylococcus aureus [2] = test: Antibacterial activity against Staphylococcus aureus assessed as diameter of inhibition zone at 0.5% after 24 hrs
Pseudomonas aeruginosa [3] = test: Antibacterial activity against Pseudomonas aeruginosa assessed as diameter of inhibition zone at 0.5% after 24 hrs
Escherichia coli [4] = test: Antibacterial activity against Escherichia coli assessed as diameter of inhibition zone at 1.0% after 24 hrs
Pseudomonas aeruginosa [5] = test: Antibacterial activity against Pseudomonas aeruginosa assessed as diameter of inhibition zone at 1.0% after 24 hrs
Staphylococcus aureus [6] = test: Antibacterial activity against Staphylococcus aureus assessed as diameter of inhibition zone at 0.25% after 24 hrs
Vibrio cholerae [7] = test: Antibacterial activity against Vibrio cholerae assessed as diameter of inhibition zone at 1.0% after 24 hrs; design: scale not given: the % may be the effect or the level left
Vibrio cholerae [8] = test: Antibacterial activity against Vibrio cholerae assessed as diameter of inhibition zone at 0.25% after 24 hrs; design: scale not given: the % may be the effect or the level left
Staphylococcus aureus [9] = test: Antibacterial activity against Staphylococcus aureus assessed as diameter of inhibition zone at 1.0% after 24 hrs
Vibrio cholerae [10] = test: Antibacterial activity against Vibrio cholerae assessed as diameter of inhibition zone at 0.5% after 24 hrs; design: scale not given: the % may be the effect or the level left
Escherichia coli [11] = test: Antibacterial activity against Escherichia coli assessed as diameter of inhibition zone at 0.25% after 24 hrs
Escherichia coli [12] = test: Antibacterial activity against Escherichia coli assessed as diameter of inhibition zone at 2.0% after 24 hrs
Pseudomonas aeruginosa [13] = test: Antibacterial activity against Pseudomonas aeruginosa assessed as diameter of inhibition zone at 0.25% after 24 hrs
Staphylococcus aureus [14] = test: Antibacterial activity against Staphylococcus aureus assessed as diameter of inhibition zone at 2.0% after 24 hrs
Vibrio cholerae [15] = test: Antibacterial activity against Vibrio cholerae assessed as diameter of inhibition zone at 2.0% after 24 hrs; design: scale not given: the % may be the effect or the level left
Pseudomonas aeruginosa [16] = test: Antibacterial activity against Pseudomonas aeruginosa assessed as diameter of inhibition zone at 2.0% after 24 hrs

Row | Compound | inhibition zone (IZ) (Escherichia coli [1]) | inhibition zone (IZ) (Staphylococcus aureus [2]) | inhibition zone (IZ) (Pseudomonas aeruginosa [3]) | inhibition zone (IZ) (Escherichia coli [4]) | inhibition zone (IZ) (Pseudomonas aeruginosa [5]) | inhibition zone (IZ) (Staphylococcus aureus [6]) | Activity (Vibrio cholerae [7]) | Activity (Vibrio cholerae [8]) | inhibition zone (IZ) (Staphylococcus aureus [9]) | Activity (Vibrio cholerae [10]) | inhibition zone (IZ) (Escherichia coli [11]) | inhibition zone (IZ) (Escherichia coli [12]) | inhibition zone (IZ) (Pseudomonas aeruginosa [13]) | inhibition zone (IZ) (Staphylococcus aureus [14]) | Activity (Vibrio cholerae [15]) | inhibition zone (IZ) (Pseudomonas aeruginosa [16])
1 | CN[C@@H]1[C@H](O[C@H]2[C@H](O[C@H]3[C@H](O)[C@@H](O)[C@H](N=C(N)N)[C@@H](O)[C@@H]3N=C(N)N)O[C@@H](C)[C@]2(O)C=O)O[C@@H](CO)[C@H](O)[C@H]1O [STREPTOMYCIN] | 20 mm | 19 mm | 21 mm | 22 mm | 23 mm | 17 mm | 20% | 14% | 23 mm | 17% | 18 mm | 25 mm | 18 mm | 25 mm | 22% | 24 mm
2 | Oc1ccccc1/C=N/NC(=S)Nc1ccccc1 | 7 mm | 6 mm | 5 mm | 8 mm | 7 mm |  | 8% | 4% | 8 mm | 6% | 5 mm |  |  | 9 mm | 9% | 9 mm
